Reference: patent US10681909B2, “Herbicidal triazoles” (FMC Corporation, priority 2014, dated 2020)

Columns and labels:
pigweed [1] = assay: Test D preemergence; format: in vivo, Amaranthus retroflexus; settings: for Plant response rating (0 to 100), Pigweed: 16 g ai/ha, 0 is no effect, 100 is complete control; for Plant response rating: Pigweed: scale 0 to 100
Description: (§1) Seeds of plant species selected from bluegrass (annual bluegrass, Poa annua), blackgrass (Alopecurus myosuroides), canarygrass (Phalaris minor), chickweed (common chickweed, Stellaria media), galium (catchweed bedstraw, Galium aparine), bromegrass, down (downy bromegrass, Bromus tectorum), Russian thistle (Salsola kali), field poppy (Papaver rhoeas), field violet (Viola arvensis), foxtail, green (green foxtail, Setaria viridis), deadnettle (henbit deadnettle, Lamium amplexicaule), ryegrass, Ital. (Italian ryegrass, Lolium multiflorum), kochia (Kochia scoparia), lambsquarters (Chenopodium album), oilseed rape (Brassica napus), pigweed (Amaranthus retroflexus), chamomile (scentless chamomile, Matricaria inodora), speedwell (bird's-eye speedwell, Veronica persica), barley, spring (spring barley, Hordeum vulgare), wheat, spring (spring wheat, Triticum aestivum), buckwheat, wild (wild buckwheat, Polygonum convolvulus), wild mustard (Sinapis arvensis), oat, wild (wild oat, Avena fatua), radish, wild (wild radish, Raphanus raphanistrum), […]), barley, winter (winter barley, Hordeum vulgare), and wheat, winter (winter wheat, Triticum aestivum) were planted into a silt loam soil and treated preemergence with test chemicals formulated in a non-phytotoxic solvent mixture which included a surfactant. At the same time, these species were planted in pots containing Sunshine Redi-Earth® planting medium comprising spaghnum peat moss, vermiculite, starter nutrients and dolomitic limestone and treated with postemergence applications of the test chemicals formulated in the same manner. Plants ranged in height from 2 to 18 cm (1- to 4-leaf stage). Treated plants and controls were maintained in a controlled growth environment for 14 to 21 d after which time all species were compared to controls and visually evaluated. […] A dash (-) response means no test result.

wild mustard = assay: Test D postemergence; format: in vivo, Sinapis arvensis; settings: scale 0 to 100
Description: as §1

barnyardgrass = assay: Test C preemergence; format: in vivo, Echinochloa crus-galli; settings: for Plant response rating (scale of 0 to 100 where 0 is no effect and 100 is complete control): Barnyardgrass, preemergence; for Barnyardgrass plant response rating (0 to 100): Preemergence, visual rating after 13 to 15 d
Description: (§2) Seeds of plant species selected from blackgrass (Alopecurus myosuroides), ryegrass, Italian (Italian ryegrass, Lolium multiflorum), wheat (winter wheat, Triticum aestivum), galium (catchweed bedstraw, Galium aparine), corn (Zea mays), crabgrass, large (large crabgrass, Digitaria sanguinalis), foxtail, giant, (giant foxtail, Setaria faberii), johnsongrass (Sorghum halepense), lambsquarters (Chenopodium album), morningglory (Ipomoea coccinea), nutsedge, yellow (yellow nutsedge, Cyperus esculentus), pigweed (Amaranthus retroflexus), ragweed (common ragweed, Ambrosia elatior), soybean (Glycine max), barnyardgrass (Echinochloa crus-galli), oilseed rape (Brassica napus), waterhemp (common waterhemp, Amaranthus rudis), and velvetleaf (Abutilon theophrasti) were planted into a blend of loam soil and sand and treated preemergence with test chemicals formulated in a non-phytotoxic solvent mixture which included a surfactant. At the same time, plants selected from these crop and weed species and also chickweed (common chickweed, Stellaria media), oat, wild (wild oat, Avena fatua), and kochia (Kochia scoparia), were planted in pots containing Sunshine Redi-Earth® planting medium comprising spaghnum peat moss, vermiculite, starter nutrients and dolomitic limestone and treated with postemergence applications of test chemicals formulated in the same manner. Plants ranged in height from 2 to 18 cm (1- to 4-leaf stage) for postemergence treatments. […] A dash (-) response means no test result.

ryegrass, Ital. = assay: Test D postemergence; format: in vivo, Lolium multiflorum; settings: scale 0 to 100
Description: as §1

deadnettle = assay: Test D postemergence; format: in vivo, Lamium amplexicaule; settings: scale 0 to 100
Description: as §1

wheat, spring = assay: Test D preemergence; format: in vivo, Triticum aestivum; settings: for Plant response rating (0 to 100), Wheat, Spring: 16 g ai/ha, 0 is no effect, 100 is complete control; for Plant response rating: Wheat, Spring: scale 0 to 100
Description: as §1

wheat, winter = assay: Test D preemergence; format: in vivo, Triticum aestivum; settings: for Plant response rating (0 to 100), Wheat, Winter: 16 g ai/ha, 0 is no effect, 100 is complete control; for Plant response rating: Wheat, Winter: scale 0 to 100
Description: as §1

ryegrass, Italian = assay: Test C preemergence; format: in vivo, Lolium multiflorum; settings: for Ryegrass, Italian plant response rating (0 to 100): Preemergence, visual rating after 13 to 15 d; for Plant response rating (scale of 0 to 100 where 0 is no effect and 100 is complete control): Ryegrass, Italian, preemergence
Description: as §2

pigweed [2] = assay: Test D postemergence; format: in vivo, Amaranthus retroflexus; settings: scale 0 to 100
Description: as §1

galium = assay: Test D preemergence; format: in vivo, Galium aparine; settings: for Plant response rating (0 to 100), Galium: 16 g ai/ha, 0 is no effect, 100 is complete control; for Plant response rating: Galium: scale 0 to 100
Description: as §1

chamomile [3] = assay: Test D preemergence; format: in vivo, Matricaria inodora; settings: for Plant response rating (0 to 100), Chamomile: 16 g ai/ha, 0 is no effect, 100 is complete control; for Plant response rating: Chamomile: scale 0 to 100
Description: as §1

field poppy = assay: Test D postemergence; format: in vivo, Papaver rhoeas; settings: scale 0 to 100
Description: as §1

chamomile [4] = assay: Test D postemergence; format: in vivo, Matricaria inodora; settings: scale 0 to 100
Description: as §1

CCOc1nc(-c2ccc(C(F)(F)F)cc2)nn1Cc1ccnc(C(F)(F)F)c1 [Compound 35, 4-[[5-ethoxy-3-[4-(trifluoromethyl)phenyl]-1H-1,2,4-triazole-1-yl]methyl]-2-(trifluoromethyl)pyridine]
Plant response rating (0 to 100), Pigweed (pigweed [1]): 100
Plant response rating: Pigweed (pigweed [1]; 62 g ai/ha): 100
Plant response rating: Pigweed (pigweed [1]; 125 g ai/ha): 100
Plant response rating: Mustard, Wild (wild mustard; 16 g ai/ha): 70
Plant response rating: Mustard, Wild (wild mustard; 31 g ai/ha): 100
Plant response rating: Mustard, Wild (wild mustard; 62 g ai/ha): 100
Plant response rating: Mustard, Wild (wild mustard; 125 g ai/ha): 100
Plant response rating (scale of 0 to 100 where 0 is no effect and 100 is complete control) (barnyardgrass; 125 g ai/ha): 98
Plant response rating (scale of 0 to 100 where 0 is no effect and 100 is complete control) (barnyardgrass; 250 g ai/ha): 100
Barnyardgrass plant response rating (0 to 100) (barnyardgrass; 31 g ai/ha): 85
Barnyardgrass plant response rating (0 to 100) (barnyardgrass; 62 g ai/ha): 90
Plant response rating: Ryegrass, Ital. (ryegrass, Ital.; 16 g ai/ha): 30
Plant response rating: Ryegrass, Ital. (ryegrass, Ital.; 31 g ai/ha): 60
Plant response rating: Ryegrass, Ital. (ryegrass, Ital.; 62 g ai/ha): 65
Plant response rating: Ryegrass, Ital. (ryegrass, Ital.; 125 g ai/ha): 75
Plant response rating: Deadnettle (deadnettle; 16 g ai/ha): 55
Plant response rating: Deadnettle (deadnettle; 31 g ai/ha): 65
Plant response rating: Deadnettle (deadnettle; 62 g ai/ha): 75
Plant response rating: Deadnettle (deadnettle; 125 g ai/ha): 90
Plant response rating (0 to 100), Wheat, Spring (wheat, spring): 25
Plant response rating: Wheat, Spring (wheat, spring; 62 g ai/ha): 50
Plant response rating: Wheat, Spring (wheat, spring; 125 g ai/ha): 50
Plant response rating (0 to 100), Wheat, Winter (wheat, winter): 20
Plant response rating: Wheat, Winter (wheat, winter; 62 g ai/ha): 40
Plant response rating: Wheat, Winter (wheat, winter; 125 g ai/ha): 45
Ryegrass, Italian plant response rating (0 to 100) (ryegrass, Italian; 31 g ai/ha): 70
Ryegrass, Italian plant response rating (0 to 100) (ryegrass, Italian; 62 g ai/ha): 85
Plant response rating (scale of 0 to 100 where 0 is no effect and 100 is complete control) (ryegrass, Italian; 125 g ai/ha): 90
Plant response rating (scale of 0 to 100 where 0 is no effect and 100 is complete control) (ryegrass, Italian; 250 g ai/ha): 90
Plant response rating: Pigweed (pigweed [2]; 16 g ai/ha): 100
Plant response rating: Pigweed (pigweed [2]; 31 g ai/ha): 100
Plant response rating: Pigweed (pigweed [2]; 62 g ai/ha): 100
Plant response rating: Pigweed (pigweed [2]; 125 g ai/ha): 100
Plant response rating (0 to 100), Galium (galium): 70
Plant response rating: Galium (galium; 62 g ai/ha): 80
Plant response rating: Galium (galium; 125 g ai/ha): 80
Plant response rating (0 to 100), Chamomile (chamomile [3]): 95
Plant response rating: Chamomile (chamomile [3]; 31 g ai/ha): 100
Plant response rating: Chamomile (chamomile [3]; 62 g ai/ha): 100
Plant response rating: Chamomile (chamomile [3]; 125 g ai/ha): 100
Plant response rating: Field Poppy (field poppy; 16 g ai/ha): 80
Plant response rating: Field Poppy (field poppy; 31 g ai/ha): 95
Plant response rating: Field Poppy (field poppy; 62 g ai/ha): 95
Plant response rating: Field Poppy (field poppy; 125 g ai/ha): 100
Plant response rating: Chamomile (chamomile [4]; 16 g ai/ha): 70
Plant response rating: Chamomile (chamomile [4]; 31 g ai/ha): 75
Plant response rating: Chamomile (chamomile [4]; 62 g ai/ha): 95
Plant response rating: Chamomile (chamomile [4]; 125 g ai/ha): 100

CCOc1nc(-c2ccccc2)nn1Cc1ccnc(C(F)(F)F)c1 [Compound 27]
Plant response rating (0 to 100), Pigweed (pigweed [1]): 100
Plant response rating: Pigweed (pigweed [1]; 62 g ai/ha): 100
Plant response rating: Pigweed (pigweed [1]; 125 g ai/ha): 100
Plant response rating: Mustard, Wild (wild mustard; 16 g ai/ha): 80
Plant response rating: Mustard, Wild (wild mustard; 31 g ai/ha): 100
Plant response rating: Mustard, Wild (wild mustard; 62 g ai/ha): 100
Plant response rating: Mustard, Wild (wild mustard; 125 g ai/ha): 100
Plant response rating (scale of 0 to 100 where 0 is no effect and 100 is complete control) (barnyardgrass; 125 g ai/ha): 100
Plant response rating (scale of 0 to 100 where 0 is no effect and 100 is complete control) (barnyardgrass; 250 g ai/ha): 100
Barnyardgrass plant response rating (0 to 100) (barnyardgrass; 31 g ai/ha): 70
Barnyardgrass plant response rating (0 to 100) (barnyardgrass; 62 g ai/ha): 90
Plant response rating: Ryegrass, Ital. (ryegrass, Ital.; 16 g ai/ha): 15
Plant response rating: Ryegrass, Ital. (ryegrass, Ital.; 31 g ai/ha): 20
Plant response rating: Ryegrass, Ital. (ryegrass, Ital.; 62 g ai/ha): 35
Plant response rating: Ryegrass, Ital. (ryegrass, Ital.; 125 g ai/ha): 60
Plant response rating: Deadnettle (deadnettle; 16 g ai/ha): 55
Plant response rating: Deadnettle (deadnettle; 31 g ai/ha): 75
Plant response rating: Deadnettle (deadnettle; 62 g ai/ha): 95
Plant response rating: Deadnettle (deadnettle; 125 g ai/ha): 100
Plant response rating (0 to 100), Wheat, Spring (wheat, spring): 15
Plant response rating: Wheat, Spring (wheat, spring; 62 g ai/ha): 20
Plant response rating: Wheat, Spring (wheat, spring; 125 g ai/ha): 35
Plant response rating (0 to 100), Wheat, Winter (wheat, winter): 25
Plant response rating: Wheat, Winter (wheat, winter; 62 g ai/ha): 30
Plant response rating: Wheat, Winter (wheat, winter; 125 g ai/ha): 30
Ryegrass, Italian plant response rating (0 to 100) (ryegrass, Italian; 31 g ai/ha): 25
Ryegrass, Italian plant response rating (0 to 100) (ryegrass, Italian; 62 g ai/ha): 30
Plant response rating (scale of 0 to 100 where 0 is no effect and 100 is complete control) (ryegrass, Italian; 125 g ai/ha): 90
Plant response rating (scale of 0 to 100 where 0 is no effect and 100 is complete control) (ryegrass, Italian; 250 g ai/ha): 95
Plant response rating: Pigweed (pigweed [2]; 16 g ai/ha): 100
Plant response rating: Pigweed (pigweed [2]; 31 g ai/ha): 100
Plant response rating: Pigweed (pigweed [2]; 62 g ai/ha): 100
Plant response rating: Pigweed (pigweed [2]; 125 g ai/ha): 100
Plant response rating (0 to 100), Galium (galium): 70
Plant response rating: Galium (galium; 62 g ai/ha): 100
Plant response rating: Galium (galium; 125 g ai/ha): 100
Plant response rating (0 to 100), Chamomile (chamomile [3]): 10
Plant response rating: Chamomile (chamomile [3]; 31 g ai/ha): 90
Plant response rating: Chamomile (chamomile [3]; 62 g ai/ha): 100
Plant response rating: Chamomile (chamomile [3]; 125 g ai/ha): 100
Plant response rating: Field Poppy (field poppy; 16 g ai/ha): 75
Plant response rating: Field Poppy (field poppy; 31 g ai/ha): 80
Plant response rating: Field Poppy (field poppy; 62 g ai/ha): 85
Plant response rating: Field Poppy (field poppy; 125 g ai/ha): 100
Plant response rating: Chamomile (chamomile [4]; 16 g ai/ha): 15
Plant response rating: Chamomile (chamomile [4]; 31 g ai/ha): 15
Plant response rating: Chamomile (chamomile [4]; 62 g ai/ha): 20
Plant response rating: Chamomile (chamomile [4]; 125 g ai/ha): 35
